Measurements as given in article PMC8086025, “A benzopyran with antiarrhythmic activity is an inhibitor of Kir3.1-containing potassium channels” (The Journal of Biological Chemistry, 2021).
Where “and” joins values, the source holds several entries; their conditions need not be identical. Identical values can stand only once.

How the values were obtained:
Kir3.4/4(S143F, N179D) = molecular target: T1, Kir3.4/4(S143F, N179D) (Homo sapiens, UniProt P48544, N179D/S143F); test: TEVC in Xenopus oocytes, Kir3.4/4(S143F, N179D); format: cell-based; details: read-out: less inhibition of Kir3.4/4(S143F, N179D) than of Kir3.4/4(S143F)
T1 construct: expressed in transfected cells; host or cells: Xenopus laevis oocytes (cRNA injection)
T1 sequence (P48544 whole entry S143F/N179D): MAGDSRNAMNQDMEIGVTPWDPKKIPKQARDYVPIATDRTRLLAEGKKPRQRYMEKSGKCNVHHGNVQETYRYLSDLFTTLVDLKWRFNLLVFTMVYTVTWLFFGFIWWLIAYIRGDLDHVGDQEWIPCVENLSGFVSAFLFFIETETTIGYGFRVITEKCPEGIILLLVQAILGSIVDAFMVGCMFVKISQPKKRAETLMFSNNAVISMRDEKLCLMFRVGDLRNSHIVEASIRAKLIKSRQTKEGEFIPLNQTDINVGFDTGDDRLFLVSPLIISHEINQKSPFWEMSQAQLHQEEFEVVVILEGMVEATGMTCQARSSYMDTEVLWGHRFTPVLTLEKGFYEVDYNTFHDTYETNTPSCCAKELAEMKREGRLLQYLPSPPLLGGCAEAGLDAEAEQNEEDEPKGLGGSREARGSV
T1 sequence (P48544 whole entry, stated change not applied): as the sequence (P48544 whole entry S143F/N179D) above, with F143S, D179N counted along it
Method: (§1) X. laevis oocytes were isolated and microinjected as previously described ([6]). Human Kir3.1, mouse Kir3.2, and human Kir3.4 DNA constructs were used for electrophysiology experiments. All cRNA constructs were injected in the amount of 2 ng per oocyte. Injected oocytes were incubated for 2 to 3 days at 18 °C to allow for expression. Whole-cell oocyte currents were then measured using a GeneClamp 500 amplifier (Axon Instruments). Microelectrodes had resistances of 0.5 to 1 megohm using a 3M KCl solution in 1.4% agarose. Oocytes were perfused with a low K^+ (LK) solution ND96 (2 mM KCl, 96 mM NaCl, 1 mM MgCl2, 1.8 mM CaCl2, 5 mM HEPES-Na) to establish a baseline for the recordings. Basal current was measured in a high potassium (HK) solution ND96K (96 mM KCl, 10 mM HEPES-K, 1 mM MgCl2, 1.8 mM CaCl2). To block the current, the oocyte chamber was perfused with 4 mM BaCl2 in ND96K. Only the Barium-sensitive current was used for statistical analysis. To measure the inhibitory activity of the channels, 1 μM BP-G1 in ND96K (HK) was used. Typically, oocytes were held at 0 mV (EK) and the current was monitored constantly using a ramp protocol with a command potential from −80 to +80 mV. Current amplitude was measured at the end of a 1 s sweep. All currents were analyzed when they reached steady state. Error bars in the figures represent SD (N > 4).

[1] = molecular target: Kir3.4/4(N179D) channel mutant (Homo sapiens, UniProt P48544, N179D); format: cell-based; details: 1 μM, TEVC
Sequence of Kir3.4/4(N179D) channel mutant (P48544 whole entry, stated change not applied): as the sequence (P48544 whole entry S143F/N179D) above, with F143S, D179N counted along it
Sequence of Kir3.4/4(N179D) channel mutant (P48544 whole entry N179D): as the sequence (P48544 whole entry S143F/N179D) above, with F143S counted along it

[2] = molecular target: T2, Kir3.4/4(S143F) with E147A in the Kir3.4(S143F) subunit (Homo sapiens, UniProt P48544, E147A/S143F); test: TEVC in Xenopus oocytes, E147A mutant in the Kir3.4(S143F) subunit; format: cell-based; details: 1 μM
T2 construct: expressed in transfected cells; host or cells: Xenopus laevis oocytes (cRNA injection)
T2 sequence (P48544 whole entry S143F/E147A): as the sequence (P48544 whole entry S143F/N179D) above, with E147A, D179N counted along it
T2 sequence (P48544 whole entry, stated change not applied): as the sequence (P48544 whole entry S143F/N179D) above, with F143S, D179N counted along it
Method: as §1

α1 adrenergic receptor = test: Radioligand binding, [3H]prazosin; design: species or system rat
Ca = test: Radioligand binding; details: listed as Benzopyran-G1
Kir3.1(D173A) mutant = molecular target: T3, Kir3.1(D173A) mutant (Homo sapiens, UniProt P48544+P48549, D173A); test: TEVC in Xenopus oocytes, Kir3.1(D173A)/4; format: cell-based; details: 1 μM
T3 construct: expressed in transfected cells; host or cells: Xenopus laevis oocytes (cRNA injection)
T3 sequence (P48549 whole entry D173A): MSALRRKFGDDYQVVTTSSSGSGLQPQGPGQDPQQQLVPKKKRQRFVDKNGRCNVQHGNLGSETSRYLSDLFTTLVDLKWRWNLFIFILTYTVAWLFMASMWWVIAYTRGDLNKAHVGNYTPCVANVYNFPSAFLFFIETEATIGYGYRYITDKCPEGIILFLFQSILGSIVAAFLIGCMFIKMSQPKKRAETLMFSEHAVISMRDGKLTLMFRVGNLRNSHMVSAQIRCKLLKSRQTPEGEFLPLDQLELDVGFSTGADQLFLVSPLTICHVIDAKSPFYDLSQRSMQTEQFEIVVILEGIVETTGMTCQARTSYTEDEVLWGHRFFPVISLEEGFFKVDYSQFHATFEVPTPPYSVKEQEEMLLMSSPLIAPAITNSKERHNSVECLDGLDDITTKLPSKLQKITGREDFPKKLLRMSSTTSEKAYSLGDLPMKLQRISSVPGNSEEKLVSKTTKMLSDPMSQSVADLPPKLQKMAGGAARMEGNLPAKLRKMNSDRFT
T3 sequence (P48544 whole entry): as the sequence (P48544 whole entry S143F/N179D) above, with F143S, D179N counted along it
Method: as §1

Question: Which results are given for Cc1cc(CO)nc2cc3c(cc12)OC(C)(C)[C@H](O)[C@H]3NCCc1ccccc1 [BP-G1, (3R,4S)-7-(hydroxymethyl)-2,2,9-trimethyl-4-(2-phenylethylamino)-3,4-dihydropyrano[2,3-g]quinolin-3-ol]?
Answer: inhibition at 1 µM (Kir3.4/4(S143F, N179D)): 20%; inhibition of Kir3.4/4(N179D) [1]: did not inhibit; block of Kir3.4/4(S143F) carrying E147A [2]: abolished block; IC50 (α1 adrenergic receptor): 13 µM; % Specific Binding at 10 µM (α1 adrenergic receptor): 55.6%; % Specific Binding at 10 µM (α1 adrenergic receptor; listed as Benzopyran-G1): 55.567%; Ki (α1 adrenergic receptor; read-out: Ki, α1 (non-selective)): 3.5 µM; % Specific Binding at 10 µM (Ca): 42.600% and < 50%; current block, Kir3.1(D173A) (Kir3.1(D173A) mutant): ~25%
